Test results reported in patent US20250230138A1, “COMPOUNDS HAVING A T-STRUCTURE FORMED BY AT LEAST FOUR CYCLES FOR USE IN THE TREATMENT OF CANCER AND OTHER INDICATIONS” (TheRas, Inc., priority 2022, published 2025).
pIC50: −log10 of the molar value. Read-outs that look alike come from different tables or passages of the source.

Tests used:
pAKT in BT474 cells = experiment: Cell-based pAKT HTRF assay in BT474 cells; details: BT474 cells, 4 hr incubation, read-out: pAKT inhibition IC50 in BT474 cells
Method: On Day 1, cells were seeded into 96-well plates at 2.5×10^4 cells/well in complete growth media (DMEM, 10% FBS). On Day 2, cells were treated with compounds at 0.25% DMSO. The source plate was created with compounds diluted in media at 5-fold the final assay concentration. The compounds are run in a 9-point concentration curve starting at 3 μM, with a 3-fold dilution between concentrations. 20 μL was transferred onto the cell plates (final volume in wells was 100 μL). Plates were harvested after 4 hr incubation by aspirating media and adding kit-supplied 1× supplemented lysis buffer to all wells (75 μL per well). Plates were then placed on a plate shaker and incubated at 850 rpm for an additional 30 min. The antibody mixture solution was prepared by diluting aliquoted d2 and Eu Cryptate antibodies 1:20 in kit supplied detection buffer, then mixed the diluted antibodies solutions (1:1 v:v). 4 μL of this solution was then added to a 384-well detection plate (Perkin Elmer; 6008230). Samples were homogenized by pipetting up and down and then transferred (16 μL of cell lysates) from the 96-well cell culture plate to two wells of the HTRF 384-well detection plate containing the antibody solution. Plates were centrifuged (524 g for 1 min) and allowed to incubate between 4 and 24 h at room temperature. The maximum signal is reached after 4 h incubation time and remains stable over a period of 24 hours. Therefore, readings can be made between 4 and 24 h of incubation. Plates were centrifuged again (524 g for 1 m), and analyzed on the EnVision plate reader using the following settings: Excitation 320 nm, Bandwidth […]; Emission 615 nm, Bandwidth […], Gain 10000, Flashes 100, Lag 60 μs.

[1] = biological target: Cys242 in human PIK3CA (157-299) (Homo sapiens (Human), UniProt P42336); experiment: Covalent modification assay using MALDI-TOF MS; type: biochemical; details: 4 h reaction time point
Chain of Cys242 in human PIK3CA (157-299) (P42336 157-299): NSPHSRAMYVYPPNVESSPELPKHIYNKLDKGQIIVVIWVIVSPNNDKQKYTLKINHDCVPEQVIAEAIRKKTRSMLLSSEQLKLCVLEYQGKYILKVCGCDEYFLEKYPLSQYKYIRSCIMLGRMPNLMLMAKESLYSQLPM
Method: Matrix-Assisted Laser Desorption Ionization-Time of Flight Mass Spectrometry (MALDI-TOF MS) analysis of covalent modification of Cys242 in human PIK3CA (157-299) was performed.
Reaction: 3.33 μM or 1 μM of PIK3CA (157-299) protein (produced in-house by Protein Expression Laboratory, FNLCR/Leidos Biomed) in 20 mM HEPES buffer containing 150 mM NaCl, 2 mM MgCl2, pH 7.3 was prepared freshly before assay. Twelve-μL aliquots of protein were dispensed onto low volume 384-well plate, then 470 nL DMSO and 30 nL of tested compounds from 10 mM DMSO stocks were added to appropriate wells using ECHO 555 acoustic liquid handler (Labcyte Inc.). For each reaction/assay, three blanks were prepared by mixing 12 μL of protein solution with 500 nL DMSO. The wells content was carefully mixed by aspiration, and then the plate was sealed by an adhesive cover, centrifuged at 931 g for 1 minute, and kept in the dark at room temperature until 15 min, 30 min, 2 h, or 4 h collections.
Targetpretreatment: Before each assay MALDI target (Bruker MPT 384 ground steel BC) was pre-treated by pipetting on each spot 0.75 μL of saturated sinapinic acid in acetonitrile (ACN).
Sample preparation: At collection time point, 2 μL of reaction mixtures were pipetted out into […] MALDI matrix solution (saturated solution of sinapinic acid in 1:1 ACN:water solution containing 0.15% trifluoroacetic acid (TFA)) deposited on 384 well polypropylene plate. The resulting solution was mixed by aspiration, centrifuged at 931 g for 1 minute, then 1.5 μL aliquots were dispensed on pre-treated MALDI target using Beckman Coulter Biomek FX^P 96/384-Span-8 Laboratory Automation Workstation. Finally, the MALDI target was dried under a mild vacuum to produce spots with a fine crystalline structure.
Measurements: MALDI-TOF measurements were performed on Bruker Daltonics rapifleX Tissuetyper TOF-TOF mass spectrometer using linear mode and mass ranging from 16.0 to 19.6 kDa. Detector gain was set to 0.64×(459 V), sample rate to 5 GS/s, real-time smoothing to medium (175 MHz), laser smart beam pattern was set to “Custom” single smartbeam beam scan with a scan range of 40 μm on both X and Y axis, and the laser frequency was 10000 Hz. Spectra were automatically collected using the custom AutoXecute method. Laser power was auto adjusted using fuzzy control. The peak selection range was set to be between 16.0 and 18.5 kDa. Peak evaluation uses a half-width parameter set to be smaller than 40 Da for processed spectrograms (centroid peak detection; smoothed by SavitzkyGolay algorithm using 7 m/z width and 2 cycles; baseline was subtracted using a median algorithm with flatness 1 and median level 0). Fuzzy control used Proteins/Oligonucleotides protocol with minimum half-width 1/10 times above threshold. Up to 40000 satisfactory shots were collected in 10000 short steps. Dynamic termination was implemented to finish data collection when the peak signal/noise ratio was reaching a value of 1000.
Spectra processing: Spectra were smoothed by SavitzkyGolay algorithm using 7 m/z width and three cycles. Centroid peak detection algorithm was used with signal to noise threshold set to 6, relative intensity threshold 3%, peak width 10 m/z, and median baseline subtraction using flatness of 1 and the median level of 0.1. Peak intensity and area under the peak were evaluated and recorded for all peaks between 16.0 and 19.5 kDa.
Calculation of percent modification: Percent modification was calculated as a ratio of peak height for protein modified by compound to the sum of the peak height of remaining protein plus peak height for protein modified by a compound. If multiple modifications were observed each was calculated as a ratio of peak height for given modification versus the sum of peak heights for all observed protein species.

[2] = 3.33 μM protein target, 1:7.5 protein to compound ratio (compounds 1-852)
[3] = 1 μM protein target, 1:5 protein to compound ratio (compounds 853-1279)

SMILES | pIC50 (pAKT in BT474 cells; Homo sapiens, BT-474, Compounds 10-999) | % of modification [1, 2] | pIC50 (pAKT in BT474 cells; Compounds 1000-1279) | % of modification [1, 3] | pIC50 (pAKT in BT474 cells; Compounds 10-999)
C=CC(=O)N1CC(n2cc(-c3nc(-c4ccc5c(c4)CCNC5)c4ccsc4c3-c3ccc(F)cc3OC)cn2)C1 [Compound 82, 1-[3-[4-[7-(4-fluoro-2-methoxy-phenyl)-4-(1,2,3,4-tetrahydroisoquinolin-6-yl)thieno[3,2-c]pyridin-6-yl]pyrazol-1-yl]azetidin-1-yl]prop-2-en-1-one] | > 7.00 | A (percent of modification of PIK3CA protein ≥75%) | – | – | –
C=CC(=O)N1CCn2nc(-c3nc(-c4ccc5c(c4)CNC(=O)C5)c4ccsc4c3-c3c(F)cc(F)cc3OCC(C)(C)O)cc2C1C (stereo not drawn) [Compound 1139] | – | – | > 7.00 | A (percent of modification of PIK3CA protein ≥75%) | –
C=CC(=O)N1Cc2cc(-c3nc(-c4cnnc(C)c4)c4ccsc4c3-c3c(F)cc(F)cc3OCC(C)(C)O)nn2[C@@H](C)C1 [Compound 882] | – | – | – | A (percent of modification of PIK3CA protein ≥75%) | > 7.00
C=CC(=O)N1Cc2cc(-c3nc(-c4cnnc(C)c4)c4ccsc4c3-c3c(F)cc(F)cc3OCCOC)nn2[C@@H](C)C1 [Compound 740] | – | A (percent of modification of PIK3CA protein ≥75%) | – | – | > 7.00
C=CC(=O)N1CCn2nc(-c3nc(-c4cnn(C5CN(C)C5)c(=O)c4)c4ccsc4c3-c3c(F)cc(F)cc3OCCOC)cc2C1C (stereo not drawn) [Compound 1035] | – | – | > 7.00 | A (percent of modification of PIK3CA protein ≥75%) | –
C=CC(=O)N1CCc2cc(-c3nc(-c4cnn(C)c4)c4ccsc4c3-c3c(F)cc(F)cc3OC(C)C)nn2CC1 [Compound 569] | – | A (percent of modification of PIK3CA protein ≥75%) | – | – | > 7.00
C=CC(=O)N1Cc2cc(-c3nc(-c4ccc5c(c4)C(=O)N(C)C5)c4ccsc4c3-c3c(F)cc(F)cc3OC)nn2[C@@H](C)C1 [Compound 905] | – | – | – | C (25%≤percent of modification <50%) | 6.00 to 7.00
C=CC(=O)N1CCn2nc(-c3nc(-c4cnc5c(c4)CN(C)C5=O)c4ccsc4c3-c3c(F)cc(F)cc3OCCOC)cc2C1C (stereo not drawn) [Compound 553] | – | A (percent of modification of PIK3CA protein ≥75%) | – | – | > 7.00
C=CC(=O)N1CCn2nc(-c3nc(-c4ccc(CC(=O)N5CC(F)(F)C5)cc4)c4ccsc4c3-c3c(F)cc(F)cc3OCCOC)cc2C1C (stereo not drawn) [Compound 1102] | – | – | > 7.00 | A (percent of modification of PIK3CA protein ≥75%) | –
C=CC(=O)N1Cc2cc(-c3nc(-c4cnn(CC(C)(C)O)c4)c4ccsc4c3-c3c(F)cc(F)cc3OCCOC)nn2C[C@H]1C [Compound 514] | – | A (percent of modification of PIK3CA protein ≥75%) | – | – | > 7.00
C=C(F)C(=O)N1CCn2nc(-c3nc(-c4ccc5c(c4)CCN(C)C5)c4ccsc4c3-c3c(F)cc(F)cc3OC(C)C)nc2C1 [Compound 314] | – | A (percent of modification of PIK3CA protein ≥75%) | – | – | > 7.00
C=CC(=O)N1CCc2ccc(-c3nc(-c4ccc5c(c4)CNC5=O)c4ccsc4c3-c3c(F)cc(F)cc3OCCO)cc2C1 (single isomer, unassigned) [Compound 962] | – | – | – | A (percent of modification of PIK3CA protein ≥75%) | > 7.00
